In patent US20100168103A1, “DIARYL PIPERIDINE COMPOUNDS AS CALCIUM CHANNEL BLOCKERS” (NEUROMED PHARMACEUTICALS LTD., priority 2006, published 2010) one finds IC50 data, which are given here for 27 compounds.

Where two headings read alike, the source gives them in different places. Bounds are passed on as bounds.

This assay concerns the target T1, rat brain N-type calcium channel subunits (α1B+α2δ+β1b cDNA subunits) (Rattus norvegicus, UniProt Q02294).
T1 construct: expressed in transfected cells; host or cells: HEK 293
Nature of the assay: N-type calcium channel block, whole cell patch clamp in transfected HEK 293 cells. In kind it is cell-based. The following applies: holding potential −80 mV to +10 mV. As for the experimental part:
N-type calcium channel blocking activity was assayed in human embryonic kidney cells, HEK 293, stably transfected with the rat brain N-type calcium channel subunits (α1B+α2δ+β1b cDNA subunits). Alternatively, N-type calcium channels (α1B+α2δ+β1b cDNA subunits), L-type channels (α1C+α2δ+β1b cDNA subunits) and P/Q-type channels (α1A+α2δ+β1b cDNA subunits) were transiently expressed in HEK 293 cells. Briefly, cells were cultured in Dulbecco's modified eagle medium (DMEM) supplemented with 10% fetal bovine serum, 200 U/ml penicillin and 0.2 mg/ml streptomycin at 37° C. with 5% CO2. At 85% confluency cells were split with 0.25% trypsin/1 mM EDTA and plated at 10% confluency on glass coverslips. At 12 hours the medium was replaced and the cells transiently transfected using a standard calcium phosphate protocol and the appropriate calcium channel cDNA's. Fresh DMEM was supplied and the cells transferred to 28° C./5% CO2. Cells were incubated for 1 to 2 days prior to whole cell recording.
Whole cell patch clamp experiments were performed using an Axopatch 200B amplifier (Axon Instruments, Burlingame, Calif.) linked to a personal computer equipped with pCLAMP software. The external and internal recording solutions contained, respectively, 5 mM BaCl2, 10 mM MgCl2, 10 mM HEPES, 40 mM TEACl, 10 mM glucose, 87.5 mM CsCl (pH 7.2) and 108 mM CsMS, 4 mM MgCl2, 9 mM EGTA, 9 mM HEPES (pH 7.2). Currents were typically elicited from a holding potential of −80 mV to +10 mV using Clampex software (Axon Instruments). Typically, currents were first elicited with low frequency stimulation (0.067 Hz) and allowed to stabilize prior to application of the compounds. The compounds were then applied during the low frequency pulse trains for two to three minutes to assess tonic block, and subsequently the pulse frequency was increased to 0.2 Hz to assess frequency dependent block. Data were analyzed using Clampfit (Axon Instruments) and SigmaPlot 4.0 (Jandel Scientific).
(In general: Patch clamp records ionic current or voltage across a cell membrane.)

[1] abbreviates: low frequency stimulation 0.067 Hz (tonic block), 5 mM BaCl2, read-out: IC50 @ 0.067 Hz.
Setting [2] is: pulse frequency 0.2 Hz (frequency dependent block), 5 mM BaCl2, read-out: IC50 @ 0.2 Hz.

T1 sequence (Q02294 whole entry): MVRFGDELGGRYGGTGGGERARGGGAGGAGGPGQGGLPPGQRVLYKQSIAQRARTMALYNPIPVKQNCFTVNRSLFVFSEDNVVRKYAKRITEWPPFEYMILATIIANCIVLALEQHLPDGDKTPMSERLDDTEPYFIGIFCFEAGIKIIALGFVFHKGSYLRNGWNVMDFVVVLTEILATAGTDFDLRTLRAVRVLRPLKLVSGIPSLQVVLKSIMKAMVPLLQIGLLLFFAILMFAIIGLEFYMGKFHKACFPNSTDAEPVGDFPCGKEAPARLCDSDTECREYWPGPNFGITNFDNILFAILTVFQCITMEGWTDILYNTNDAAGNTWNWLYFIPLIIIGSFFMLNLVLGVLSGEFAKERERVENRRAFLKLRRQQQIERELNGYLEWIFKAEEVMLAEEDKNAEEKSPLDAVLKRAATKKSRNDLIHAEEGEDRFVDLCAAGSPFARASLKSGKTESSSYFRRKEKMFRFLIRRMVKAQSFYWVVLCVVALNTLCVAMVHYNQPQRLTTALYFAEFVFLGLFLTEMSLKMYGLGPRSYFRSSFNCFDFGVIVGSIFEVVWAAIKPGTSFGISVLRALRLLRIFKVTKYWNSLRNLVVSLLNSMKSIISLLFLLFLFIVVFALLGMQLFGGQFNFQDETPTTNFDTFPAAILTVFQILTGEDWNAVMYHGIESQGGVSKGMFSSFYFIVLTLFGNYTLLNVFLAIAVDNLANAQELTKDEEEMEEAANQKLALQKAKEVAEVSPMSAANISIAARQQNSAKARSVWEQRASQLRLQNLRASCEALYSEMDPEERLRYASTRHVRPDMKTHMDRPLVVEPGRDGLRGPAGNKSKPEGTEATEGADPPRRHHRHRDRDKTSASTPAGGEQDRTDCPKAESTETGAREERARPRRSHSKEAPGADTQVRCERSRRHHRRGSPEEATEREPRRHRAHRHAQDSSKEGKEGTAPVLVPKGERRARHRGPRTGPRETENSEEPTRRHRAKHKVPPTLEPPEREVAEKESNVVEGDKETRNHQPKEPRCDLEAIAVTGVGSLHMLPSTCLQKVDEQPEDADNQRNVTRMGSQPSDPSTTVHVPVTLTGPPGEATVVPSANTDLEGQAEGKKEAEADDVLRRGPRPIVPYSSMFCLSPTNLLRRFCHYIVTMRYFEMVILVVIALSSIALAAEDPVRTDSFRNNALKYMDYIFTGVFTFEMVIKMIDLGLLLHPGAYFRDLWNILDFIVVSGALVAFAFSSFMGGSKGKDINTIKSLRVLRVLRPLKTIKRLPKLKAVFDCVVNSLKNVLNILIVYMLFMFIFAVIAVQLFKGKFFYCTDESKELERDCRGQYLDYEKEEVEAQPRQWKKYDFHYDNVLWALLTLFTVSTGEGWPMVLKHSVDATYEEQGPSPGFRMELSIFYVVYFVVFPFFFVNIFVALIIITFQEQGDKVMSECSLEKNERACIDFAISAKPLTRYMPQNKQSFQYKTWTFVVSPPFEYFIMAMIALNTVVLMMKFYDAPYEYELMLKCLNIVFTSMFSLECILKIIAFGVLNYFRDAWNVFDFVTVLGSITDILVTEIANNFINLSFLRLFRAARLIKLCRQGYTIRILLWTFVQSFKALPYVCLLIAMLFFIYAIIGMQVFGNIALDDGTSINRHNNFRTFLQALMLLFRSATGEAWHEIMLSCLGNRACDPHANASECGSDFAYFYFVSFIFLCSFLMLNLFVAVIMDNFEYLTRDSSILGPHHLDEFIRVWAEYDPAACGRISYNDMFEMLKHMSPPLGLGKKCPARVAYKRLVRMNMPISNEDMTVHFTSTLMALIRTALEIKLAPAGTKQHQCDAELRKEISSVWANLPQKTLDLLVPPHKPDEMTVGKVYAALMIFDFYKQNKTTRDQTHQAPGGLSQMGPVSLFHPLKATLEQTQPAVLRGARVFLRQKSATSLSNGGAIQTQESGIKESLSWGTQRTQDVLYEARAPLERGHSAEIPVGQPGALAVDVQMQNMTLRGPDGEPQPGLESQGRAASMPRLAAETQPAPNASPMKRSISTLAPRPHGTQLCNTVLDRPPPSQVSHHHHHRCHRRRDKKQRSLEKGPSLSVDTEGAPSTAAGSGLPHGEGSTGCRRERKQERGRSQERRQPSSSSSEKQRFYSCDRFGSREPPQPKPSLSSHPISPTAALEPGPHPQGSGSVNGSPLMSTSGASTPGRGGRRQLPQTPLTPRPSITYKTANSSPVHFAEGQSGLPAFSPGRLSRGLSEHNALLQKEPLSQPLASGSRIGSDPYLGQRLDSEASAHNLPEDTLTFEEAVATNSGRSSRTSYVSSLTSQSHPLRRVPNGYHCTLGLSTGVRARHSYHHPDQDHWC
T1 sequence (P54290 25-944 partner limits assumed): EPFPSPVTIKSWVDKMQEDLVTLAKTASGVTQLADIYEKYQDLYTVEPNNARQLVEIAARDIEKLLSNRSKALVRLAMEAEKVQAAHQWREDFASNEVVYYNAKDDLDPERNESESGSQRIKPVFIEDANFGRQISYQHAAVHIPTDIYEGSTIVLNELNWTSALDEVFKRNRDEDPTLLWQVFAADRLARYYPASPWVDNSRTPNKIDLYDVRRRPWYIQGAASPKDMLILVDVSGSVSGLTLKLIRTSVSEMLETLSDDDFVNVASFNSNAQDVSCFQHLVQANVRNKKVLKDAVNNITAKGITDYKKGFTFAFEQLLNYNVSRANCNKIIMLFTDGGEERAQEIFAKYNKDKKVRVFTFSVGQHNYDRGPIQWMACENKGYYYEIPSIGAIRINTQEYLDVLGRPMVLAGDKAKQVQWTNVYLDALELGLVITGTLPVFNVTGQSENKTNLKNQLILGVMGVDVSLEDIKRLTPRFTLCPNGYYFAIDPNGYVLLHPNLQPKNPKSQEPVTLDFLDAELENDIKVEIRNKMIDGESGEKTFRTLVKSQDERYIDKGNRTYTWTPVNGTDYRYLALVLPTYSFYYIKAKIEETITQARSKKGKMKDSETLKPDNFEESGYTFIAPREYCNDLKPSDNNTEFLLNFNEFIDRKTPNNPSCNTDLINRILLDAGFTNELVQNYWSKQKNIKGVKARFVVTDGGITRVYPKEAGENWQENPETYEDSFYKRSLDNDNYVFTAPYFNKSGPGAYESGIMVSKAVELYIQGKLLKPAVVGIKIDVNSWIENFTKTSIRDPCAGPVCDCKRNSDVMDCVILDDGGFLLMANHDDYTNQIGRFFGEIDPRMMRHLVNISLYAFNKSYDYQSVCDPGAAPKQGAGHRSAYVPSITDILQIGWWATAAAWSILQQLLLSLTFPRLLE
T1 sequence (P54290 945-1091 partner limits assumed): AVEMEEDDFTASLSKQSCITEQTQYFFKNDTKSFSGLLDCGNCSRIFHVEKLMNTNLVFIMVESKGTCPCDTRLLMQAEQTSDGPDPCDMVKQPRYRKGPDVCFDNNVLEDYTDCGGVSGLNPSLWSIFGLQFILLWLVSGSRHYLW
T1 sequence (P54283 whole entry partner): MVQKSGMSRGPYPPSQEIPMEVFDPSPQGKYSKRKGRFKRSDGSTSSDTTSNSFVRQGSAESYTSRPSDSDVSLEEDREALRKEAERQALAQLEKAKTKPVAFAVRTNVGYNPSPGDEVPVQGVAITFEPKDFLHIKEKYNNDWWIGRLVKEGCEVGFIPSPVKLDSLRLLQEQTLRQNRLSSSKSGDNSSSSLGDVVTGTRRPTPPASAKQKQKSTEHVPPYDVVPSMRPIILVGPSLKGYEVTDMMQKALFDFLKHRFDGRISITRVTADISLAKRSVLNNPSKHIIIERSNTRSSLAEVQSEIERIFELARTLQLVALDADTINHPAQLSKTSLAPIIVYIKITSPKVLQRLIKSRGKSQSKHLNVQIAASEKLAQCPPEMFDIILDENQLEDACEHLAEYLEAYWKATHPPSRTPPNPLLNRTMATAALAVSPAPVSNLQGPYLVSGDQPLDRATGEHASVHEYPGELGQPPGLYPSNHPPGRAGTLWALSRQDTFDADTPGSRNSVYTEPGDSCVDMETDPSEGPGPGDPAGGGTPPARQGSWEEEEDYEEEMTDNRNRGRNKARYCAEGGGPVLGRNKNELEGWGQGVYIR

For orientation: IC50 means the point on the concentration scale where inhibition reaches its midpoint. Regarding `CC(C)(C)N1CCN(C(=O)C2CCN(C(=O)CC(c3ccc(F)cc3)c3ccc(F)cc3)CC2)CC1` [Compound 81, 1-(4-(4-tert-butylpiperazine-1-carbonyl)piperidin-1-yl)-3,3-bis(4-fluorophenyl)propan-1-one], the IC50 was determined as 4.4 µM under setting [1] and 2.47 µM under setting [2].
In the same order, the values of `CN1CCN(CC2CCN(C(=O)NC(c3ccccc3)c3ccccc3)CC2)CC1` [Compound 11, N-benzhydryl-4-((4-methylpiperazine-1-yl)methyl)piperidine-1-carboxamide] are 28.4 µM and 1.5 µM.
For `Cc1ccccc1C(CC(=O)N1CCC(C(=O)N2CC(C)NC(C)C2)CC1)c1ccccc1C` (stereo not drawn) [Compound 16, 1-(4-(3,5-dimethylpiperazine-1-carbonyl)piperidin-1-yl)-3,3-di-o-tolylpropan-1-one], the IC50 stood at 5.85 µM under setting [1] and 3.71 µM under setting [2].
`CN1CCN(C(=O)C2(c3ccccc3)CCN(C(=O)CNC(c3ccccc3)c3ccccc3)CC2)CC1` [Compound 36, 2-(benzhydrylamino)-1-(4-(4-methylpiperazine-1-carbonyl)-4-phenylpiperidin-1-yl)ethanone]: the IC50 was greater than 21.2 µM under setting [1] and greater than 12.5 µM under setting [2].
`CN1CCN(CC2CCN(C(=O)C[S+]([O-])C(c3ccccc3)c3ccccc3)CC2)CC1` (stereo not drawn) [Compound 6, 2-(benzhydrylsulfinyl)-1-(4-((4-methylpiperazin-1-yl)methyl)piperidin-1-yl)ethanone]: the IC50 was determined as 8.55 µM under setting [1] and 5.2 µM under setting [2].
Take `Cc1ccccc1C(CC(=O)N1CCC(C(c2ccccc2)N2CCN(C(C)(C)C)CC2)CC1)c1ccccc1C` (stereo not drawn) [Compound 101, 1-(4-((4-tert-butylpiperazin-1-yl)(phenyl)methyl)piperidin-1-yl)-3,3-di-o-tolylpropan-1-one]: the IC50 under setting [1] is 1.41 µM and the IC50 under setting [2] turned out to be 0.8 µM.
`Cc1ccccc1C(CC(=O)N1CCC(CN2CCN(C(C)(C)C)CC2)CC1)c1ccccc1C` [Compound 67, 1-(4-((4-tert-butylpiperazin-1-yl)methyl)piperidin-1-yl)-3,3-di-o-tolylpropan-1-one]: the IC50 was 0.53 µM under setting [1] and 0.25 µM under setting [2].
For `CN1CCN(CC2CCN(C(=O)COC(c3ccccc3)c3ccccc3)CC2)CC1` [Compound 4, 2-(benzhydryloxy)-1-(4-((4-methylpiperazin-1-yl)methyl)piperidin-1-yl)ethanone], the IC50 by setting is: under setting [1], greater than 5.65 µM; under setting [2], greater than 3.83 µM.
Turning to `Cc1ccccc1C(CC(=O)N1CCC(C(c2ccccc2)N2CCN(C)CC2)CC1)c1ccccc1C` (stereo not drawn) [Compound 56, 1-(4-((4-methylpiperazin-1-yl)(phenyl)methyl)piperidin-1-yl)-3,3-di-o-tolylpropan-1-one], the IC50 by setting is: under setting [1], 0.27 µM; under setting [2], 0.15 µM.
The like results for `Cc1ccccc1C(CC(=O)N1CCC(C(c2ccccc2)N2CC(C)NC(C)C2)CC1)c1ccccc1C` (stereo not drawn) [Compound 57, 1-(4-((3,5-dimethylpiperazin-1-yl)(phenyl)methyl)piperidin-1-yl)-3,3-di-o-tolylpropan-1-one] were, in that order, 0.93 µM and 0.44 µM.
For the compound `CC1CN(C(=O)C2CCN(C(=O)COC(c3ccccc3)c3ccccc3)CC2)CC(C)N1` (stereo not drawn) [Compound 21, 2-(benzhydryloxy)-1-(4-(3,5-dimethylpiperazine-1-carbonyl)piperidin-1-yl)ethanone], the IC50 stood at 1.64 µM under setting [1] and 0.99 µM under setting [2].
In the same order, the values of `CC1CN(CC2CCN(C(=O)CC(c3ccccc3)c3ccccc3)CC2)CC(C)N1` (stereo not drawn) [Compound 23, 1-(4-((3,5-dimethylpiperazin-1-yl)methyl)piperidin-1-yl)-3,3-diphenylpropan-1-one] are greater than 4.7 µM and greater than 3.91 µM.
On to `COc1ccccc1C(CC(=O)N1CCC(C(=O)N2CCN(C(C)(C)C)CC2)CC1)c1ccccc1OC` [Compound 87, 1-(4-(4-tert-butylpiperazine-1-carbonyl)piperidin-1-yl)-3,3-bis(2-methoxyphenyl)propan-1-one], for which the IC50 under setting [1] turned out to be 6.91 µM and the IC50 under setting [2] amounted to 2.71 µM.
In the same order, the values of `O=C(CC(c1ccccc1)c1ccccc1)N1CCC(C(c2ccccc2)N2CCCCC2)CC1` (stereo not drawn) [Compound 50, 3,3-diphenyl-1-(4-(phenyl(piperidin-1-yl)methyl)piperidin-1-yl)propan-1-one] are 2.3 µM and 1.5 µM.
In the same order, the values of `CN1CCN(C(=O)C2CCN(C(=O)C[S+]([O-])C(c3ccccc3)c3ccccc3)CC2)CC1` (stereo not drawn) [Compound 9, 2-(benzhydrylsulfinyl)-1-(4-(4-methylpiperazine-1-carbonyl)piperidin-1-yl)ethanone] are 2.41 µM and 1.8 µM.
For the compound `Cc1ccccc1C(CC(=O)N1CCC(CN2CC(C)NC(C)C2)CC1)c1ccccc1C` (stereo not drawn) [Compound 15, 1-(4-((3,5-dimethylpiperazin-1-yl)methyl)piperidin-1-yl)-3,3-di-o-tolylpropan-1-one], the IC50 under setting [1] worked out at 1.85 µM and the IC50 under setting [2] amounted to 1.64 µM.
As for `O=C(C[S+]([O-])C(c1ccccc1)c1ccccc1)N1CCC(CN2CCCCC2)(c2ccccc2)CC1` (stereo not drawn) [Compound 48, 2-(benzhydrylsulfinyl)-1-(4-phenyl-4-(piperidin-1-ylmethyl)piperidin-1-yl)ethanone], the IC50 reads like this: under setting [1], 1.25 µM; under setting [2], 0.93 µM.
As to `CN1CCN(C(=O)C2(c3ccccc3)CCN(C(=O)NC(c3ccccc3)c3ccccc3)CC2)CC1` [Compound 38, N-benzhydryl-4-(4-methylpiperazine-1-carbonyl)-4-phenylpiperidine-1-carboxamide], the IC50 is greater than 2.29 µM under setting [1] and 1.42 µM under setting [2].
In the same order, the values of `CC1CN(C(=O)C2(c3ccccc3)CCN(C(=O)CNC(c3ccccc3)c3ccccc3)CC2)CC(C)N1` (stereo not drawn) [Compound 28, 2-(benzhydrylamino)-1-(4-(3,5-dimethylpiperazine-1-carbonyl)-4-phenylpiperidin-1-yl)ethanone] are 2.78 µM and 1.61 µM.
The like results for `CC1CN(C(=O)C2(c3ccccc3)CCN(C(=O)CC(c3ccccc3)c3ccccc3)CC2)CC(C)N1` (stereo not drawn) [Compound 26, 1-(4-(3,5-dimethylpiperazine-1-carbonyl)-4-phenylpiperidin-1-yl)-3,3-diphenylpropan-1-one] were, in that order, 1.31 µM and 0.85 µM.
For the compound `CC(C)(C)N1CCN(C(=O)C2CCN(C(=O)CC(c3ccccc3)c3ccccc3)CC2)CC1` [Compound 78, 1-(4-(4-tert-butylpiperazine-1-carbonyl)piperidin-1-yl)-3,3-diphenylpropan-1-one], the IC50 under setting [1] was greater than 6.45 µM and the IC50 under setting [2] is greater than 3.34 µM.
Turning to `CN1CCN(C(c2ccccc2)C2CCN(C(=O)CC(c3ccccc3)c3ccccc3)CC2)CC1` (stereo not drawn) [Compound 54, 1-(4-((4-methylpiperazin-1-yl)(phenyl)methyl)piperidin-1-yl)-3,3-diphenylpropan-1-one], the IC50 by setting is: under setting [1], 2.36 µM; under setting [2], 1.32 µM.
The like results for `Cc1ccccc1C(CC(=O)N1CCC(C(=O)N2CCNCC2)CC1)c1ccccc1C` [Compound 17, 1-(4-(piperazine-1-carbonyl)piperidin-1-yl)-3,3-di-o-tolylpropan-1-one] were, in that order, 3.52 µM and 1.88 µM.
For `Cc1ccccc1C(CC(=O)N1CCC(CN2CC(C)NC(C)C2)(c2ccccc2)CC1)c1ccccc1C` (stereo not drawn) [Compound 31, 1-(4-((3,5-dimethylpiperazin-1-yl)methyl)-4-phenylpiperidin-1-yl)-3,3-di-o-tolylpropan-1-one], the IC50 by setting is: under setting [1], 0.61 µM; under setting [2], 0.31 µM.
Regarding `O=C(C[S+]([O-])C(c1ccccc1)c1ccccc1)N1CCC(CN2CCCCC2)CC1` (stereo not drawn) [Compound 44, 2-(benzhydrylsulfinyl)-1-(4-(piperidin-1-ylmethyl)piperidin-1-yl)ethanone], the IC50 runs as follows: under setting [1], 8.4 µM; under setting [2], 4.1 µM.
In the same order, the values of `CC1CN(C(c2ccccc2)C2CCN(C(=O)CC(c3ccccc3)c3ccccc3)CC2)CC(C)N1` (stereo not drawn) [Compound 55, 1-(4-((3,5-dimethylpiperazin-1-yl)(phenyl)methyl)piperidin-1-yl)-3,3-diphenylpropan-1-one] are 0.88 µM and 0.42 µM.
In the same order, the values of `CC(C)(C)N1CCN(CC2CCN(C(=O)CCCCC(c3ccccc3)c3ccccc3)CC2)CC1` [Compound 74, 1-(4-((4-tert-butylpiperazin-1-yl)methyl)piperidin-1-yl)-6,6-diphenylhexan-1-one] are 0.42 µM and 0.29 µM.
